In test [1] the target is T1, PfFNT (Plasmodium falciparum, UniProt O77389). Kind of test: cell-based.
Another test has as its system P. falciparum 3D7. Kind of test: Viability of cultured P. falciparum parasites (FACS parasitemia). It is filed as cell-based, Plasmodium falciparum. The note with it: for IC50: Plasmodium falciparum, 3D7, 48 h, read-out: IC50 (P. falciparum 3D7).
Test [2] has as its system MMV007839 resistant 3D7 parasites. Kind of test: microbe, parasite or virus in culture. It is filed as cell-based, Plasmodium falciparum. The note with it: for IC50: Plasmodium falciparum, 3D7, read-out: IC50 (P. falciparum resist.).
Test [3] has as its target T1, PfFNT. The test can be described thus: cell-based. Conditions: for hit identification: inhibition of PfFNT transport at 10 μM: 1 mM substrate gradient, compound added 20 min prior; for inhibition at 10 µM: read-out: % Inhib.
A further test has as its target T2, rat MCT1 (Rattus norvegicus, UniProt P53987).
T2 sequence (P53987 1-494): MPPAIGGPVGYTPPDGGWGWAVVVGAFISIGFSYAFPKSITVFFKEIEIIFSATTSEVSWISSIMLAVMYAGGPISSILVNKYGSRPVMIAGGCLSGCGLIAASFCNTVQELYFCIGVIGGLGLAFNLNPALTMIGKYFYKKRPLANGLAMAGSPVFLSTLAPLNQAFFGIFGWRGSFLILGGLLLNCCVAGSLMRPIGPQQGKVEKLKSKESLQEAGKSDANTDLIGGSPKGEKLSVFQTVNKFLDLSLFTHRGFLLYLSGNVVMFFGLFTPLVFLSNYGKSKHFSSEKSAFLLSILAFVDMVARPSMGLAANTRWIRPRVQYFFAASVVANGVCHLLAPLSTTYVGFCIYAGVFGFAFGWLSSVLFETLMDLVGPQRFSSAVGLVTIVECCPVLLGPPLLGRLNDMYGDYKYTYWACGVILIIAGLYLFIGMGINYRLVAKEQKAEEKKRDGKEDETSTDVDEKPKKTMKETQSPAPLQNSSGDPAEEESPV
The test can be described thus: L-lactate transport inhibition of MCT1 expressed in yeast. In kind it is cell-based.

The target of the next test is T3, BbFNT (Babesia bovis, UniProt A7AX62).
T3 sequence (A7AX62 1-279): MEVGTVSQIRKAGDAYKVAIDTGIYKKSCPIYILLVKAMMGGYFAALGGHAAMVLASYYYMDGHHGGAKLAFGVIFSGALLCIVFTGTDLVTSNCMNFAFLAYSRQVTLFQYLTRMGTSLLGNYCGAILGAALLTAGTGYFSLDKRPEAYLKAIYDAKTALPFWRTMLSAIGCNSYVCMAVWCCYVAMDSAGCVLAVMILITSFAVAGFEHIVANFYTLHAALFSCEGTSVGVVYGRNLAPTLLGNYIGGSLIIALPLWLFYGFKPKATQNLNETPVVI
Kind of test: cell-based. Conditions: wildtype BbFNT; read-out: IC50 (BbFNT / yeast).

The target of a further test is T4, BbFNT S93G (Babesia bovis, UniProt A7AX62, S93G).
T4 sequence (A7AX62 1-279 S93G): T3 sequence (A7AX62 1-279)
Kind of test: cell-based. Conditions: read-out: IC50 (BbFNT S93G / yeast).

Test [4] deals with T1, PfFNT. Conditions: earlier determined; read-out: affinity of lactate to PfFNT (Km); cited from earlier work.
Test [5] has as its target T1, PfFNT. Conditions: read-out: IC50 on PfFNT; cited from earlier work.
[6] abbreviates: IC50 (PfFNT / yeast), 20 min incubation with compound, 1 mM L-lactate.
[7] abbreviates: IC50 (PfFNT / yeast), half-maximal lactate transport rate, 20 min treatment.

Structures are written as SMILES. Where two headings read alike, the source gives them in different places. Where only a bound is given, the exact number is not on record here.

T1 sequence (O77389 whole entry): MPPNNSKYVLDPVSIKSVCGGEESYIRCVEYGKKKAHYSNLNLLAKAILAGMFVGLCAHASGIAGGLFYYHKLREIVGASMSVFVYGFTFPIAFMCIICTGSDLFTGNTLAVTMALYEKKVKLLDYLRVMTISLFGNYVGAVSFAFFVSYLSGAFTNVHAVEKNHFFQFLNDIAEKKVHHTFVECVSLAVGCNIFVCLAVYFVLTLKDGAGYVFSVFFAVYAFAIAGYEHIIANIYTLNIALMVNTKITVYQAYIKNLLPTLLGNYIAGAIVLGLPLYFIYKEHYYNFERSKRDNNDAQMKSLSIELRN

On to `CCOc1ccc2c(c1)OC(O)(C(F)(F)C(F)(F)F)CC2=O` (stereo not drawn) [[13]], for which the IC50 on PfFNT [1] (setting [6]) is 0.24 ± 0.01 µM; in the test on P. falciparum 3D7, 0.05 µM.
For `COc1ccc2c(c1)OC(O)(C(F)(F)C(F)(F)C(F)(F)F)CC2=O` (stereo not drawn) [[10]], the IC50 at PfFNT [1] (setting [6]) is 0.25 ± 0.02 µM; with P. falciparum 3D7, 0.47 ± 0.1 µM.
On to `CC(=O)C=C(O)C(F)(F)C(F)(F)F` [Pharmacophore, 5,5,6,6,6-pentafluoro-4-hydroxyhex-3-en-2-one], for which the IC50 at PfFNT [1] (setting [6]) was determined as 1.9 µM.
Still for that read-out and setting: the figure for `COc1ccc2c(c1)OC(O)(C(F)(F)C(F)F)CC2=O` (stereo not drawn) [[9]] is 0.36 ± 0.4 µM; for `COc1ccc2c(=O)cc(C(F)(F)C(F)(F)F)oc2c1` [[1]] it is above 1000 µM.
On to `O=C1CC(O)(C(F)(F)C(F)(F)C(F)(F)C(F)(F)F)Oc2ccccc21` (stereo not drawn) [[11]], for which the IC50 on PfFNT [1] (setting [6]) is 4.9 ± 0.2 µM.
Still for that read-out and setting: next, `COc1ccc2c(c1)OC(C)(C)CC2=O` [[2]]: above 1000 µM.
Turning to `COc1ccc(C(=O)/C=C(\O)C(F)(F)C(F)(F)F)cc1` [BH-296], the figures for the IC50 (at PfFNT [1] (setting [6]); in the test on P. falciparum 3D7; in test [2]) were 0.14 ± 0.01 µM, 3.6 ± 0.2 µM and 8.6 µM, respectively. In addition, in the test with P. falciparum 3D7 (compared with PfFNT block in yeast / MMV007839), the “less efficient in P. falciparum culture” value came to 25 times. The “shift in IC50, resistant versus non-resistant parental parasites” value in [2] came to 2.5 fold.
For the compound `CC(C)Oc1ccc2c(c1)OC(O)(C(F)(F)C(F)(F)F)CC2=O` (stereo not drawn) [[14]], the values for the IC50 on PfFNT [1] (setting [6]) and in the test with P. falciparum 3D7 were 0.4 ± 0.01 µM and 0.1 µM, respectively.
On to `O/N=C1\CC(O)(C(F)(F)F)Oc2ccc(Cl)cc21` (stereo not drawn) [[6]], for which, at PfFNT [1] (setting [6]), the IC50 came out at 315 ± 63 µM.
The same measure, in the same setting: next, `O=C1CC(O)(C(F)(F)C(F)(F)F)Oc2cc(OCc3ccccc3)ccc21` (stereo not drawn) [[15]]: 0.88 ± 0.03 µM.
Turning to `O=C1CC(O)(C(F)(F)C(F)(F)F)Oc2ccccc21` (stereo not drawn) [MMV000972], the IC50 against PfFNT [1] (setting [7]) is 0.17 µM. Moreover, the IC50 in the test with P. falciparum 3D7 came to 1.7 µM. Besides, at PfFNT [3], the “hit identification: inhibition of PfFNT transport at 10 μM” value is recorded as “fully blocked” and the inhibition at 10 µM came out at 102%.
Regarding `O=C1CC(O)(C(F)(F)C(F)(F)F)Oc2cc(Cl)ccc21` (stereo not drawn) [[12]], the IC50 at PfFNT [1] (setting [6]) was determined as 0.12 ± 0.01 µM; in the test on P. falciparum 3D7, 0.28 ± 0.05 µM.
Take `COc1ccc2c(c1)OC(O)(C(F)(F)C(F)(F)F)CC2=O` (stereo not drawn) [MMV007839]: at PfFNT [1], affinity was put at a Ki of 1.4 µM. Also, the IC50 was found to be 0.17 µM against PfFNT [1] (setting [7]); 0.015 µM against PfFNT [1] (IC50 (PfFNT / yeast; 24 h treatment), compound added 24 h before the assay, last 18 h at 4°C); 55 µM at rat MCT1; 35 µM in test [2]; 150 µM at BbFNT; 11 µM at BbFNT S93G. Besides, the “higher affinity than the physiological substrate lactate” value at PfFNT [1] (Ki versus lactate Km) is reported as > 60,000 times. For the same compound, on PfFNT [1] (full and half-maximal inhibition, wash-out, up to 2 h), the “re-gain of PfFNT transport activity after removal of inhibitor (dissociation)” value is listed as “does not re-gain activity within 2 h”. Besides, the entries for the “reduction of parasite growth” value in the test with P. falciparum 3D7 (incubation at IC90 over night) and in the test with P. falciparum 3D7 (short period incubation at IC90 for 1 h) were 70% and 17%, respectively. Further, on PfFNT [3], the “hit identification: inhibition of PfFNT transport at 10 μM” value is listed as “fully blocked”. The inhibition at 10 µM on PfFNT [3] was 99.1%.
Consider `CCO/C(=C\C(=O)c1ccc(OC)cc1)C(F)(F)C(F)(F)F` [BH-296 ethyl ester prodrug], for which the IC50 in the test on P. falciparum 3D7 stood at 9.3 ± 1.4 µM.
As to `COc1ccc2c(c1)C(=O)CC(O)(C(F)F)O2` (stereo not drawn) [[4]], the IC50 at PfFNT [1] (setting [6]) is above 1000 µM.
For `CC(O)C(=O)O` (stereo not drawn) [lactate], the Km (usually the substrate concentration at which the rate is half of its maximum) at PfFNT [4] is 87 mM.
As for `O=C1CC(O)(C(F)F)Oc2ccccc21` (stereo not drawn) [[7]], the IC50 on PfFNT [1] (setting [6]) came to 280 ± 32 µM.
On the same count and under the same terms, the figure for `COc1ccc2c(c1)OC(O)(C(F)(F)C(F)(F)F)C(C)C2=O` (stereo not drawn) [[5]] is 145 ± 8 µM.
Same read-out and setting: the figure for `O=C1CC(O)(C(F)(F)C(F)F)Oc2ccc(Cl)cc21` (stereo not drawn) [[3]] is 48 ± 2 µM; for `COc1ccc2c(c1)OC(O)(C(F)(F)F)CC2=O` (stereo not drawn) [[8]] it is 1.1 ± 0.1 µM.
Regarding `O=C(O)c1cccnc1Nc1cccc(C(F)(F)F)c1` [niflumic acid], the IC50 at PfFNT [5] was above 100 µM.

These data come from paper PMC5298233, “Substrate-analogous inhibitors exert antimalarial action by targeting the Plasmodium lactate transporter PfFNT at nanomolar scale” (PLoS Pathogens, 2017).
